Measurements from patent publication US9464069B2, “1,2-disubstituted cyclobutyl compounds” (LABORATORIOS DEL DR. ESTEVE S.A., priority 2013, dated 2016).
Where a name gives a salt, the structure may show the parent alone.

Biological target: T1, human sigma 1 receptor (Homo sapiens, UniProt Q99720)
T1 construct: expressed in transfected cells; host or cells: HEK-293
Assay: Human Sigma 1 Receptor Radioligand Assay
Format: binding
Details: [3H](+)-pentazocine radioligand 5 nM; transfected HEK-293 membranes; 37° C., 120 minutes
Protocol: Human Sigma 1 Receptor Radioligand Assay
To investigate binding properties of sigma 1 receptor ligands to human sigma 1 receptor, transfected HEK-293 membranes and [^3H](+)-pentazocine (Perkin Elmer, NET-1056), as the radioligand, were used. The assay was carried out with 7 μg of membrane suspension, 5 nM of [^3H](+)-pentazocine in either absence or presence of either buffer or 10 μM Haloperidol for total and non-specific binding, respectively. Binding buffer contained Tris-HCl 50 mM at pH 8. Plates were incubated at 37° C. for 120 minutes. After the incubation period, the reaction mix was then transferred to MultiScreen HTS, FC plates (Millipore), filtered and plates were washed 3 times with ice-cold 10 mM Tris-HCL (pH 7.4). Filters were dried and counted at approximately 40% efficiency in a MicroBeta scintillation counter (Perkin-Elmer) using EcoScint liquid scintillation cocktail.

T1 sequence (Q99720 whole entry): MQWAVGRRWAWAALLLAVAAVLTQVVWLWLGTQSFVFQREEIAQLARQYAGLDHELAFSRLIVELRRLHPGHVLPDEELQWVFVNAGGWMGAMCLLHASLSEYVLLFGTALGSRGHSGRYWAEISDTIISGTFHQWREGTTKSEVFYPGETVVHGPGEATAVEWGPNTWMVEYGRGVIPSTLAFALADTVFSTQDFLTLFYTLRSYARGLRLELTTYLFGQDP

Row | SMILES | Ki
1 | CC1CCN(C[C@H]2CC[C@H]2COc2ccccc2)CC1 [Example 3, 4-Methyl-1-(((1S,2R)-2-(phenoxymethyl)cyclobutyl)methyl)piperidine] | 2.8 nM
2 | Clc1ccc(-n2ccc(OC[C@@H]3CC[C@@H]3CN3CCCC3)n2)cc1Cl [Example 13, 1-(3,4-Dichlorophenyl)-3-(((1R,2S)-2-(pyrrolidin-1-ylmethyl)cyclobutyl)methoxy)-1H-pyrazole] | 16.5 nM
3 | Cc1cc(OC[C@@H]2CC[C@@H]2CN2CCCC2)nn1-c1ccc(Cl)c(Cl)c1 [Example 15, 1-(3,4-Dichlorophenyl)-5-methyl-3-(((1R,2S)-2-(pyrrolidin-1-ylmethyl)cyclobutyl)methoxy)-1H-pyrazole] | 50.3 nM
4 | Cc1cc(OC[C@@H]2CC[C@@H]2CN2CCOCC2)nn1-c1ccc(Cl)c(Cl)c1 [Example 16, 4-(((1S,2R)-2-(((1-(3,4-Dichlorophenyl)-5-methyl-1H-pyrazol-3-yl)oxy)methyl)cyclobutyl)methyl)morpholine] | 178 nM
5 | c1ccc(OC[C@@H]2CC[C@@H]2CN2CCOCC2)cc1 [Example 17, 4-(((1S,2R)-2-(Phenoxymethyl)cyclobutyl)methyl)morpholine hydrochloride] | 33.9 nM
6 | Clc1ccc(OC[C@@H]2CC[C@@H]2CN2CCCC2)cc1Cl [Example 18, 1-(((1S,2R)-2-((3,4-Dichlorophenoxy)methyl)cyclobutyl)methyl)pyrrolidine hydrochloride] | 2.3 nM
7 | Clc1ccc(OC[C@@H]2CC[C@@H]2CN2CCOCC2)cc1Cl [Example 19, 4-(((1S,2R)-2-((3,4-Dichlorophenoxy)methyl)cyclobutyl)methyl)morpholine hydrochloride] | 3.7 nM
8 | CC1CCN(C[C@H]2CC[C@H]2COc2ccc(Cl)c(Cl)c2)CC1 [Example 20, 1-(((1S,2R)-2-((3,4-Dichlorophenoxy)methyl)cyclobutyl)methyl)-4-methylpiperidine hydrochloride] | 4.8 nM
9 | Clc1ccc(-n2ccc(OC[C@@H]3CC[C@@H]3CN3CCCC3)n2)cc1Cl [Example 25, 1-(3,4-Dichlorophenyl)-3-(((1R,2S)-2-(pyrrolidin-1-ylmethyl)cyclobutyl)methoxy)-1H-pyrazole hydrochloride] | 20.4 nM
10 | Cc1cc(OC[C@@H]2CC[C@@H]2CN2CCCC2)nn1-c1ccc(Cl)c(Cl)c1 [Example 27, 1-(3,4-Dichlorophenyl)-5-methyl-3-(((1R,2S)-2-(pyrrolidin-1-ylmethyl)cyclobutyl)methoxy)-1H-pyrazole hydrochloride] | 72.5 nM
11 | Clc1ccc(-n2ccc(OC[C@@H]3CC[C@H]3CN3CCCC3)n2)cc1Cl [Example 28] | 104 nM
12 | Cn1nc(OC[C@H]2CC[C@H]2CN2CCCC2)cc1C(F)(F)F [Example 34, 1-Methyl-3-(((1S,2R)-2-(pyrrolidin-1-ylmethyl)cyclobutyl)methoxy)-5-(trifluoromethyl)-1H-pyrazole hydrochloride] | 28.3 nM
13 | Cn1nc(OC[C@H]2CC[C@@H]2CN2CCCC2)cc1C(F)(F)F [Example 38, 1-Methyl-3-(((1S,2S)-2-(pyrrolidin-1-ylmethyl)cyclobutyl)methoxy)-5-(trifluoromethyl)-1H-pyrazole hydrochloride] | 75.8 nM

Further lines, results first:

Row | Ki | SMILES
14 | 7.1 nM | c1ccc(OC[C@@H]2CC[C@@H]2CN2CCCC2)cc1 [Example 1, 1-(((1S,2R)-2-(Phenoxymethyl)cyclobutyl)methyl)pyrrolidine]
15 | 19.1 nM | Cn1nc(OC[C@@H]2CC[C@@H]2CN2CCCC2)cc1C(F)(F)F [Example 21, 1-Methyl-3-(((1R,2S)-2-(pyrrolidin-1-ylmethyl)cyclobutyl)methoxy)-5-(trifluoromethyl)-1H-pyrazole hydrochloride]
16 | 5.6 nM | Cn1nc(OC[C@@H]2CC[C@@H]2CN2CCOCC2)cc1C(F)(F)F [Example 22, 4-(((1S,2R)-2-(((1-Methyl-5-(trifluoromethyl)-1H-pyrazol-3-yl)oxy)methyl)cyclobutyl)methyl)morpholine hydrochloride]
17 | 30.1 nM | Cn1nc(C(F)(F)F)cc1OC[C@@H]1CC[C@@H]1CN1CCCC1 [Example 23, 1-Methyl-5-(((1R,2S)-2-(pyrrolidin-1-ylmethyl)cyclobutyl)methoxy)-3-(trifluoromethyl)-1H-pyrazole hydrochloride]
18 | 13.4 nM | Clc1ccc(-n2ccc(OC[C@@H]3CC[C@@H]3CN3CCOCC3)n2)cc1Cl [Example 26, 4-(((1S,2R)-2-(((1-(3,4-Dichlorophenyl)-1H-pyrazol-3-yl)oxy)methyl)cyclobutyl)methyl)morpholine hydrochloride]
19 | 113 nM | Cc1cc(OC[C@@H]2CC[C@H]2CN2CCCC2)nn1-c1ccc(Cl)c(Cl)c1 [Example 29, 1-(3,4-Dichlorophenyl)-5-methyl-3-(((1R,2R)-2-(pyrrolidin-1-ylmethyl)cyclobutyl)methoxy)-1H-pyrazole]
20 | 578 nM | Cc1cc(OC[C@@H]2CC[C@H]2CN2CCOCC2)nn1-c1ccc(Cl)c(Cl)c1 [Example 30, 4-(((1R,2R)-2-(((1-(3,4-Dichlorophenyl)-5-methyl-1H-pyrazol-3-yl)oxy)methyl)cyclobutyl)methyl)morpholine]
21 | 17.2 nM | Cn1nc(OC[C@@H]2CC[C@H]2CN2CCCC2)cc1C(F)(F)F [Example 32, 1-Methyl-3-(((1R,2R)-2-(pyrrolidin-1-ylmethyl)cyclobutyl)methoxy)-5-(trifluoromethyl)-1H-pyrazole hydrochloride]
22 | 465 nM | Cc1cc(OC[C@H]2CC[C@@H]2CN2CCOCC2)nn1-c1ccc(Cl)c(Cl)c1 [Example 36, 4-(((1S,2S)-2-(((1-(3,4-Dichlorophenyl)-5-methyl-1H-pyrazol-3-yl)oxy)methyl)cyclobutyl)methyl)morpholine]
23 | 39.9 nM | CCN(CC)C[C@H]1CC[C@@H]1COc1ccccc1 [Example 39, N,N-Diethyl-N-(((1S,2S)-2-(phenoxymethyl)cyclobutyl)methyl)ethanamine hydrochloride]
